Measured values: patent publication US9845319B2, “Amide substituted thiazoles as modulators of RORyt” (Janssen Pharmaceutica NV, priority 2014, dated 2017)
pIC50, pKd: −log10 of the molar value.

Columns and labels:
full-length human RORγt = molecular target: T1, full-length human RORγt (Homo sapiens, UniProt P51449); experiment: RORγt (full-length human) Reporter Assay, Conditions A; assay type: cell-based; conditions: for pIC50: HEK293T cells, GAL4-DBD-RORγt, luciferase, read-out: RORγt (FL) Reporter Assay A, IC50; for inhibition at 6 µM: read-out: RORγt (FL) Reporter Assay A, % inhibition @ 6 μM, 6 μM compound; for inhibition at 2 µM: read-out: RORγt (FL) Reporter Assay A, % inhibition (* at 2 μM), 2 μM compound concentration (footnote *)
T1 construct: expressed in transfected cells; host or cells: HEK293T, transiently transfected with pCMV-BD-ROR
T1 sequence (P51449 1-497 isoform P51449-2): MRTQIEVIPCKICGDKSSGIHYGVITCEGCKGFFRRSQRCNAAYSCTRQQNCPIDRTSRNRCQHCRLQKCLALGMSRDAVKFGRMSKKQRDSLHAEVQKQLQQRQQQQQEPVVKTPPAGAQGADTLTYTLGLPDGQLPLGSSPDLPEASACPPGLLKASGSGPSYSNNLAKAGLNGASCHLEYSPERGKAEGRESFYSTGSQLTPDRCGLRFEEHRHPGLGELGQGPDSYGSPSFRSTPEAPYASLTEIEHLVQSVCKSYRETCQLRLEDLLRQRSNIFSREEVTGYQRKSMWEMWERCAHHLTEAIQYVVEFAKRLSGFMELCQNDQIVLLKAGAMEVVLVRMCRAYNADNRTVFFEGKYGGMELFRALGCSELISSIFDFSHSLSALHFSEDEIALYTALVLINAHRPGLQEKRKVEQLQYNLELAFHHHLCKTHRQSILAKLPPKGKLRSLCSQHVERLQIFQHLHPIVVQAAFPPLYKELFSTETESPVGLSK
Summary of the method: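 Dual-luciferase readout after overnight (16 to 20 hours) treatment: firefly values scaled between DMSO-only and saturating reference-compound controls, then corrected by Renilla. Percent inhibition calculated against DMSO control, with IC50 derived from concentration-response plots.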

[1] = molecular target: T2, human RORγt ligand binding domain (RORγt LBD) (Homo sapiens, UniProt P51449); experiment: RORγt ThermoFluor assay; conditions: estimated from thermal shift concentration response
T2 construct: His-tag (N); TurboTEV protease cleavage site (ENLYFQG) (N); made in house; host or cells: E. coli (pHIS1, a modified pET expression vector)
T2 sequence (P51449 with tags, fused parts or gaps): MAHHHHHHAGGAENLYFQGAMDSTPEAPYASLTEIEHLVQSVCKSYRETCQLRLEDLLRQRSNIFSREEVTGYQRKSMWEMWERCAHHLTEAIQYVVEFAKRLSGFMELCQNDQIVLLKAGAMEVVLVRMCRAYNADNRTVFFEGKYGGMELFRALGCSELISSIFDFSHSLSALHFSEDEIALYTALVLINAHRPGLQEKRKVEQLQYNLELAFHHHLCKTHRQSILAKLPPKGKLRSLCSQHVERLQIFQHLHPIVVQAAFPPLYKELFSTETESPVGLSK
Summary of the method: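 Thermal shift of RORγt LBD (0.065 mg/mL) with 60 μM 1,8-ANS in 100 mM Hepes pH 7.0, NaCl, GSH, 0.002% Tween-20, heated at 1° C/min. ANS fluorescence tracked versus temperature; ΔTm relative to DMSO wells. Compounds serially diluted 1:2 from 10 mM DMSO stock.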

Row | pIC50 (full-length human RORγt) | inhibition at 6 µM (full-length human RORγt) [%] | pKd [1] | inhibition at 2 µM (full-length human RORγt) [%] | inhibition at 0.22 µM (full-length human RORγt; 0.22 μM compound concentration (footnote ***), read-out: RORγt (FL) Reporter Assay A, % inhibition (*** at 0.22 μM)) [%] | inhibition at 0.67 µM (full-length human RORγt; 0.67 μM compound concentration, read-out: RORγt (FL) Reporter Assay A, % inhibition (** at 0.67 μM)) [%] | Compound
1 | 7.18 | 104 | 11.85 |  |  |  | CC[C@H](NS(=O)(=O)c1ccc(-c2sc(-c3noc(CC(C)(C)C(=O)O)n3)nc2C(=O)N2CCC(F)(F)CC2)c(C(F)F)c1Cl)C(F)(F)F [Example 10/1, (S)-3-(3-(5-(3-Chloro-2-(difluoromethyl)-4-(N-(1,1,1-trifluorobutan-2-yl)sulfamoyl)phenyl)-4-(4,4-difluoropiperidine-1-carbonyl)thiazol-2-yl)-1,2,4-oxadiazol-5-yl)-2,2-dimethylpropanoic acid]
2 | 7.30 | 97 | 11.44 |  |  |  | CC[C@H](NS(=O)(=O)c1ccc(-c2sc(-c3noc(CC(C)(C)C(=O)O)n3)nc2C(=O)N2CC(F)(F)C[C@@H]2C)c(C(F)F)c1Cl)C(F)(F)F [Example 10/3, 3-(3-(5-(3-Chloro-2-(difluoromethyl)-4-(N—((S)-1,1,1-trifluorobutan-2-yl)sulfamoyl)phenyl)-4-((S)-4,4-difluoro-2-methylpyrrolidine-1-carbonyl)thiazol-2-yl)-1,2,4-oxadiazol-5-yl)-2,2-dimethylpropanoic acid]
3 | 6.92 | 103 | 7.51 |  |  |  | C[C@H](NS(=O)(=O)c1ccc(-c2sc(-c3noc(C(C)(C)O)n3)nc2C(=O)N2CCC(F)CC2)c(C(F)F)c1F)C(F)(F)F [Example 11/1, (S)-3-(Difluoromethyl)-2-fluoro-4-(4-(4-fluoropiperidine-1-carbonyl)-2-(5-(2-hydroxypropan-2-yl)-1,2,4-oxadiazol-3-yl)thiazol-5-yl)-N-(1,1,1-trifluoropropan-2-yl)benzenesulfonamide]
4 | 7.34 | 108 | 7.92 |  |  |  | C[C@H](NS(=O)(=O)c1ccc(-c2sc(-c3noc(C(C)(C)O)n3)nc2C(=O)N2CCC(F)(F)CC2)c(C(F)F)c1F)C(F)(F)F [Example 11/2, (S)-3-(Difluoromethyl)-4-(4-(4,4-difluoropiperidine-1-carbonyl)-2-(5-(2-hydroxypropan-2-yl)-1,2,4-oxadiazol-3-yl)thiazol-5-yl)-2-fluoro-N-(1,1,1-trifluoropropan-2-yl)benzenesulfonamide]
5 | 7.17 | 103 | 8.03 |  |  |  | CC[C@H](NS(=O)(=O)c1ccc(-c2sc(-c3noc(CC(C)(C)O)n3)nc2C(=O)N2CCC(F)CC2)c(C(F)F)c1F)C(F)(F)F [Example 12, (S)-3-(Difluoromethyl)-2-fluoro-4-(4-(4-fluoropiperidine-1-carbonyl)-2-(5-(2-hydroxy-2-methylpropyl)-1,2,4-oxadiazol-3-yl)thiazol-5-yl)-N-(1,1,1-trifluorobutan-2-yl)benzenesulfonamide]
6 | 6.92 | 102 | 7.52 |  |  |  | CC[C@H](NS(=O)(=O)c1ccc(-c2sc(-c3noc(CC(C)(C)O)n3)nc2C(=O)N2CCC(F)(F)C2)c(C(F)F)c1F)C(F)(F)F [Example 12/1, (S)-3-(Difluoromethyl)-4-(4-(3,3-difluoropyrrolidine-1-carbonyl)-2-(5-(2-hydroxy-2-methylpropyl)-1,2,4-oxadiazol-3-yl)thiazol-5-yl)-2-fluoro-N-(1,1,1-trifluorobutan-2-yl)benzenesulfonamide]
7 | 7.92 |  | 8.89 | 105 |  |  | C[C@H](NS(=O)(=O)c1ccc(-c2sc(-c3cc(C(C)(C)O)on3)nc2C(=O)N2CCC(F)(F)CC2)c(Cl)c1Cl)C(F)(F)F [Example 13, (S)-2,3-Dichloro-4-(4-(4,4-difluoropiperidine-1-carbonyl)-2-(5-(2-hydroxypropan-2-yl)isoxazol-3-yl)thiazol-5-yl)-N-(1,1,1-trifluoropropan-2-yl)benzenesulfonamide]
8 | 7.68 |  | 8.31 | 101 |  |  | C[C@H](NS(=O)(=O)c1ccc(-c2sc(-c3cc(C(C)(C)O)on3)nc2C(=O)N2CCC(F)CC2)c(Cl)c1Cl)C(F)(F)F [Example 13/1, (S)-2,3-Dichloro-4-(4-(4-fluoropiperidine-1-carbonyl)-2-(5-(2-hydroxypropan-2-yl)isoxazol-3-yl)thiazol-5-yl)-N-(1,1,1-trifluoropropan-2-yl)benzenesulfonamide]
9 | < 5.70 |  | 6.55 | -25 |  |  | C[C@H](NS(=O)(=O)c1ccc(-c2sc(-c3noc(=O)[nH]3)nc2C(=O)N2CCC(F)CC2)c(Cl)c1Cl)C(F)(F)F [Example 14, (S)-2,3-Dichloro-4-(4-(4-fluoropiperidine-1-carbonyl)-2-(5-oxo-4,5-dihydro-1,2,4-oxadiazol-3-yl)thiazol-5-yl)-N-(1,1,1-trifluoropropan-2-yl)benzenesulfonamide]
10 | 7.85 |  | 8.18 | 100 |  |  | C[C@H](NS(=O)(=O)c1ccc(-c2sc(-c3cnn[nH]3)nc2C(=O)N2CCCC[C@@H]2C)c(Cl)c1Cl)C(F)(F)F [Example 16, 2,3-Dichloro-4-(4-((S)-2-methylpiperidine-1-carbonyl)-2-(1H-1,2,3-triazol-5-yl)thiazol-5-yl)-N—((S)-1,1,1-trifluoropropan-2-yl)benzenesulfonamide]
11 | 7.85 |  | 8.15 | 104 |  |  | CCN(CC)C(=O)c1nc(-c2cccc(C(C)(C)O)n2)sc1-c1ccc(S(=O)(=O)N[C@@H](C)C(F)(F)F)c(Cl)c1Cl [Example 17, (S)-5-(2,3-Dichloro-4-(N-(1,1,1-trifluoropropan-2-yl)sulfamoyl)phenyl)-N,N-diethyl-2-(6-(2-hydroxypropan-2-yl)pyridin-2-yl)thiazole-4-carboxamide]
12 | 7.57 |  | 8.11 |  | 91 |  | CCN(CC)C(=O)c1nc(-c2cc(C(C)(C)O)ccn2)sc1-c1ccc(S(=O)(=O)N[C@@H](C)C(F)(F)F)c(Cl)c1Cl [Example 17/1, (S)-5-(2,3-Dichloro-4-(N-(1,1,1-trifluoropropan-2-yl)sulfamoyl)phenyl)-N,N-diethyl-2-(4-(2-hydroxypropan-2-yl)pyridin-2-yl)thiazole-4-carboxamide]
13 | 7.51 |  | 8.55 |  |  | 106 | CCN(CC)C(=O)c1nc(-c2cc(C(C)(C)O)ncn2)sc1-c1ccc(S(=O)(=O)N[C@@H](C)C(F)(F)F)c(Cl)c1Cl [Example 17/2, (S)-5-(2,3-Dichloro-4-(N-(1,1,1-trifluoropropan-2-yl)sulfamoyl)phenyl)-N,N-diethyl-2-(6-(2-hydroxypropan-2-yl)pyrimidin-4-yl)thiazole-4-carboxamide]
14 | 8.00 |  | 10.64 | 98 |  |  | CC[C@H](NS(=O)(=O)c1ccc(-c2sc(-c3cccc(CC(C)(C)C(=O)O)n3)nc2C(=O)N2CC(F)(F)C[C@@H]2C)c(C(F)F)c1F)C(F)(F)F [Example 19/1, 3-(6-(4-((S)-4,4-Difluoro-2-methylpyrrolidine-1-carbonyl)-5-(2-(difluoromethyl)-3-fluoro-4-(N—((S)-1,1,1-trifluorobutan-2-yl)sulfamoyl)phenyl)thiazol-2-yl)pyridin-2-yl)-2,2-dimethylpropanoic acid]
15 | 7.92 |  | 10.59 | 101 |  |  | C[C@H]1CCCCN1C(=O)c1nc(-c2noc(CC(C)(C)C(=O)O)n2)sc1-c1ccc(C(O)(C(F)(F)F)C(F)(F)F)c(Cl)c1Cl [Example 20, (S)-3-(3-(5-(2,3-Dichloro-4-(1,1,1,3,3,3-hexafluoro-2-hydroxypropan-2-yl)phenyl)-4-(2-methylpiperidine-1-carbonyl)thiazol-2-yl)-1,2,4-oxadiazol-5-yl)-2,2-dimethylpropanoic acid]
